Experimental findings from the NIST ThermoML archive (doi:10.1016/j.jct.2012.03.015) are described below.

A short description of this series: activity coefficient (dimensionless); of the first substance listed, at infinite dilution; xn = mol fraction of the nth substance listed. The settings on record: 101 kPa, Liquid, Chromatography, x1 = 0.

Numbers after ± are expanded uncertainties.

For `CCCC=O` [butanal] + COCC[N+]1(C)CCCC1.O=S(=O)([N-]S(=O)(=O)C(F)(F)F)C(F)(F)F, the activity coefficient is, setting by setting: (318.15 K) 0.808 ± 0.052; (328.15 K) 0.823 ± 0.053; (338.15 K) 0.838 ± 0.054; (348.15 K) 0.851 ± 0.055; (358.15 K) 0.864 ± 0.055; (368.15 K) 0.876 ± 0.056.
`C1CCCCCC1` [cycloheptane] + COCC[N+]1(C)CCCC1.O=S(=O)([N-]S(=O)(=O)C(F)(F)F)C(F)(F)F: the activity coefficient was determined as 15.3 ± 1 (318.15 K); 14.1 ± 1 (328.15 K); 13.1 ± 0.9 (338.15 K); 12.3 ± 0.8 (348.15 K); 11.5 ± 0.8 (358.15 K); 10.8 ± 0.7 (368.15 K).
In the case of `C1CCCCC1` [cyclohexane] + COCC[N+]1(C)CCCC1.O=S(=O)([N-]S(=O)(=O)C(F)(F)F)C(F)(F)F, the activity coefficient (318.15 K) was determined as 11.1 ± 0.8; the activity coefficient (328.15 K) amounted to 10.4 ± 0.7; the activity coefficient (338.15 K) was 9.69 ± 0.66; the activity coefficient (348.15 K) stood at 9.22 ± 0.63; the activity coefficient (358.15 K) came out at 8.65 ± 0.59; the activity coefficient (368.15 K) came to 8.23 ± 0.56.
`C1=CCCCC1` [cyclohexene] + COCC[N+]1(C)CCCC1.O=S(=O)([N-]S(=O)(=O)C(F)(F)F)C(F)(F)F: the activity coefficient by setting is: (318.15 K) 6.04 ± 0.41; (328.15 K) 5.82 ± 0.4; (338.15 K) 5.63 ± 0.38; (348.15 K) 5.44 ± 0.37; (358.15 K) 5.27 ± 0.36; (368.15 K) 5.1 ± 0.35.
For `C1CCCCCCC1` [cyclooctane] + COCC[N+]1(C)CCCC1.O=S(=O)([N-]S(=O)(=O)C(F)(F)F)C(F)(F)F, the activity coefficient runs as follows: (318.15 K) 20.7 ± 1.4; (328.15 K) 19 ± 1.3; (338.15 K) 17.4 ± 1.2; (348.15 K) 16.2 ± 1.1; (358.15 K) 15 ± 1; (368.15 K) 14 ± 1.
Regarding `C1CCCC1` [cyclopentane] + COCC[N+]1(C)CCCC1.O=S(=O)([N-]S(=O)(=O)C(F)(F)F)C(F)(F)F, the activity coefficient was 7.52 ± 0.51 (318.15 K); 7.19 ± 0.49 (328.15 K); 6.85 ± 0.47 (338.15 K); 6.54 ± 0.45 (348.15 K); 6.26 ± 0.43 (358.15 K); 5.98 ± 0.41 (368.15 K).
In the case of `CCCCCCCCCC` [decane] + COCC[N+]1(C)CCCC1.O=S(=O)([N-]S(=O)(=O)C(F)(F)F)C(F)(F)F, the activity coefficient reads like this: (318.15 K) 83.1 ± 5.7; (328.15 K) 75.5 ± 5.2; (338.15 K) 68.1 ± 4.7; (348.15 K) 61.8 ± 4.2; (358.15 K) 56.1 ± 3.8; (368.15 K) 51.3 ± 3.5.
In the case of `CCOCC` [diethyl ether] + COCC[N+]1(C)CCCC1.O=S(=O)([N-]S(=O)(=O)C(F)(F)F)C(F)(F)F, the activity coefficient reads like this: (318.15 K) 2.79 ± 0.19; (328.15 K) 2.79 ± 0.19; (338.15 K) 2.78 ± 0.19; (348.15 K) 2.78 ± 0.19; (358.15 K) 2.78 ± 0.19; (368.15 K) 2.78 ± 0.19.
Take `CC(C)OC(C)C` [diisopropyl ether] + COCC[N+]1(C)CCCC1.O=S(=O)([N-]S(=O)(=O)C(F)(F)F)C(F)(F)F: the activity coefficient (318.15 K) was 6.63 ± 0.45; the activity coefficient (328.15 K) is 6.55 ± 0.45; the activity coefficient (338.15 K) is 6.46 ± 0.44; the activity coefficient (348.15 K) was 6.39 ± 0.44; the activity coefficient (358.15 K) worked out at 6.31 ± 0.43; the activity coefficient (368.15 K) was 6.23 ± 0.42.
On to `CCCOCCC` [dipropyl ether] + COCC[N+]1(C)CCCC1.O=S(=O)([N-]S(=O)(=O)C(F)(F)F)C(F)(F)F, for which the activity coefficient was 7.22 ± 0.49 (318.15 K); 7.03 ± 0.48 (328.15 K); 6.82 ± 0.46 (338.15 K); 6.64 ± 0.45 (348.15 K); 6.47 ± 0.44 (358.15 K); 6.32 ± 0.43 (368.15 K).
As to `CCO` [ethanol] + COCC[N+]1(C)CCCC1.O=S(=O)([N-]S(=O)(=O)C(F)(F)F)C(F)(F)F, the activity coefficient is, setting by setting: (318.15 K) 1.77 ± 0.12; (328.15 K) 1.63 ± 0.11; (338.15 K) 1.48 ± 0.1; (348.15 K) 1.38 ± 0.09; (358.15 K) 1.28 ± 0.08; (368.15 K) 1.2 ± 0.08.
Take `CCOC(C)=O` [ethyl acetate] + COCC[N+]1(C)CCCC1.O=S(=O)([N-]S(=O)(=O)C(F)(F)F)C(F)(F)F: the activity coefficient by setting is: (318.15 K) 0.95 ± 0.06; (328.15 K) 0.97 ± 0.06; (338.15 K) 0.98 ± 0.06; (348.15 K) 1 ± 0.06; (358.15 K) 1.02 ± 0.06; (368.15 K) 1.03 ± 0.06.
Regarding `CCc1ccccc1` [ethylbenzene] + COCC[N+]1(C)CCCC1.O=S(=O)([N-]S(=O)(=O)C(F)(F)F)C(F)(F)F, the activity coefficient by setting is: (318.15 K) 2.23 ± 0.15; (328.15 K) 2.24 ± 0.15; (338.15 K) 2.24 ± 0.15; (348.15 K) 2.25 ± 0.15; (358.15 K) 2.25 ± 0.15; (368.15 K) 2.26 ± 0.15.
Regarding `CCCCCCC` [heptane] + COCC[N+]1(C)CCCC1.O=S(=O)([N-]S(=O)(=O)C(F)(F)F)C(F)(F)F, the activity coefficient was found to be 28 ± 1.9 (318.15 K); 25.9 ± 1.8 (328.15 K); 24.2 ± 1.7 (338.15 K); 22.6 ± 1.5 (348.15 K); 21.1 ± 1.4 (358.15 K); 19.7 ± 1.3 (368.15 K).
For `C=CCCCC` [hex-1-ene] + COCC[N+]1(C)CCCC1.O=S(=O)([N-]S(=O)(=O)C(F)(F)F)C(F)(F)F, the activity coefficient reads like this: (318.15 K) 9.74 ± 0.66; (328.15 K) 9.34 ± 0.64; (338.15 K) 8.92 ± 0.61; (348.15 K) 8.61 ± 0.59; (358.15 K) 8.24 ± 0.56; (368.15 K) 7.96 ± 0.54.
In the case of `CCCCCC` [hexane] + COCC[N+]1(C)CCCC1.O=S(=O)([N-]S(=O)(=O)C(F)(F)F)C(F)(F)F, the activity coefficient is, setting by setting: (318.15 K) 19 ± 1.3; (328.15 K) 17.8 ± 1.2; (338.15 K) 16.7 ± 1.1; (348.15 K) 15.9 ± 1.1; (358.15 K) 15 ± 1; (368.15 K) 14.3 ± 1.
For `CO` [methanol] + COCC[N+]1(C)CCCC1.O=S(=O)([N-]S(=O)(=O)C(F)(F)F)C(F)(F)F, the activity coefficient (318.15 K) worked out at 1.37 ± 0.09; the activity coefficient (328.15 K) worked out at 1.27 ± 0.08; the activity coefficient (338.15 K) was determined as 1.18 ± 0.08; the activity coefficient (348.15 K) came to 1.1 ± 0.07; the activity coefficient (358.15 K) was 1.03 ± 0.06; the activity coefficient (368.15 K) is 0.972 ± 0.061.
With `CCCC(=O)OC` [methyl butanoate] + COCC[N+]1(C)CCCC1.O=S(=O)([N-]S(=O)(=O)C(F)(F)F)C(F)(F)F, the activity coefficient is, setting by setting: (318.15 K) 1.29 ± 0.08; (328.15 K) 1.31 ± 0.09; (338.15 K) 1.33 ± 0.09; (348.15 K) 1.35 ± 0.09; (358.15 K) 1.36 ± 0.09; (368.15 K) 1.38 ± 0.09.
In the case of `COC(C)=O` [methyl ethanoate] + COCC[N+]1(C)CCCC1.O=S(=O)([N-]S(=O)(=O)C(F)(F)F)C(F)(F)F, the activity coefficient runs as follows: (318.15 K) 0.71 ± 0.05; (328.15 K) 0.73 ± 0.05; (338.15 K) 0.74 ± 0.05; (348.15 K) 0.76 ± 0.05; (358.15 K) 0.77 ± 0.05; (368.15 K) 0.78 ± 0.05.
